Key:
humans = conditions: cited from earlier work
rhesus monkeys = conditions: cited from earlier work
[1] = humans, 1.5 mg/kg, cited from earlier work
[2] = tested on: Sprague Dawley albino rats; test: Anesthesia-induced hypothermia in rats, topical norepinephrine cream on tail, feet and ears (Example 2); type: in vivo, rat
Protocol: This experiment was similar to the experiment of Example 1, although Sprague Dawley albino rats were used. […] The test cream composition was 10% Norepinephrine vasoactive substance, 10% penetration enhancer (propylene glycol), and 80% conventional base cream.
All rats were subjected to one hour pre-anesthesia time (t=−60 to t=0), one hour anesthesia (t=0 to t=60), and 4 hours post anesthesia (t=60 to t=300). The appropriate cream was applied to the tail, feet, and ears skin surface of each rat. There were four rats in each test/control group. Vasoconstrictor cream was applied to the test group rats 3 times, at t=−60, t=−30, and t=0 min before anesthesia. Core body temperature was measured rectally. Rat tail skin temperature was measured at around the mid-length of the tail by press touching the thermometer tip to the skin surface.

AVA = conditions: Pollock et al. 1996; cited from earlier work
[3] = tested on: porcine carotid arteriovenous anastomoses; conditions: porcine (De Vries et al. 1998); cited from earlier work
[4] = cited from earlier work
Male Wistar rats = tested on: Male Wistar rats
Text: Although there are differences between the thermoregulatory system of rats and humans, the tails and feet pads of rats function as thermoregulatory organs in a similar fashion to human skin. The rat tail skin and feet pads are exposed and not covered by fur. By controlling the blood flow to the tail skin and feet pads, the rat controls some of its heat dissipation to the environment. Only about 30% of the rat heat loss is regulated by the tail—much less than the role of the skin in humans.
Male Wistar rats, each about 400 g mass, were divided into three groups: a control group (C) of 8 rats, a test first group (A) of 7 rats, and a third test group (B) of 5 rats. All rats had test composition applied to the tail skin and the feet pads. All experiments were conducted at 23° C. ambient room temperature. All groups went though an anesthesia period of one hour (t=0 is time of start of anesthesia), and a follow-up period of 3 hours after end of anesthesia. Core body temperature (CBT) and tail skin temperature of the rats was measured using a thermocouple-based digital thermometer with 0.1° C. sensitivity.
For test group A, the cream was identical to that used for the control group, except it contained 6 wt. % epinephrine, a vasoconstrictor. The cream for test group B was the same as that for group A, except that the cream contained 20 wt. % penetration enhancer.
The cream on both control group C and test group A was applied at two times: first, concomitantly with application of anesthesia (t=0), and again at 20 min into anesthesia (t=20 m=⅓ h). CBT and tail temperatures were measured at t=0, 20, 40, 60, 120, 180 and 240 minutes.
In test group (B), two changes were made to the experimental procedure. First, the concentration of penetration enhancer (propylene glycol) in the cream was doubled to 20 wt. %. Second, the time of first cream application was done at 30 min before anesthesia (t=−30 min) and the second cream application was given with initiation of administration of anesthetic (t=0).

pigs = conditions: 6 wt.% epinephrine, 10 wt.% propylene glycol cream at t=-40 min and t=0; after 130 minutes; room 20° C.
Protocol: The same composition, but without the epinephrine, was prepared for use as a control. Five pigs, each weighing 55-65 kg, were divided into two groups, three in the experimental group and two in the control group. The cream was administered 40 minutes before the onset of anesthesia (t=−40 min) and again with the commencement of general anesthesia (t=0). The room temperature was 20° C., with +/−1° C. fluctuations due to the thermostat of the air conditioner. The pigs were not covered with anything other than the cream, with which there were covered over their entire skin surface. Core body temperature was measured at t=−40, 0, 30, 50, 70, 100 and 130 min.

adult male Wistar rat = conditions: injection into the preoptic area of rat brain; cited from earlier work
[5] = group B: 6 wt.% epinephrine, 20 wt.% propylene glycol

Question: For CNC(C)Cc1ccc2c(c1)OCO2 (centres unmarked) [MDMA, 3,4-methylenedioxymethamphetamine], which hyperthermic response (humans; humans, all doses tested (up to 2.0 mg/kg), laboratory conditions (Liechti 2000)) is on record?
Answer: little or no hyperthermic response

Question: And the “effect on core body temperature at different ambient temperatures” value (humans; recreational users, single exposure (Freedman et al. 2005))?
Answer: produced hyperthermia regardless of ambient temperature

Question: And the “time to flat peak of thermoregulatory disruption effect” value (rhesus monkeys; monkeys, after intravenous injection)?
Answer: about 90 minutes

Question: And the “duration of flat peak of thermoregulatory disruption effect” value (rhesus monkeys; monkeys, intravenous injection)?
Answer: about 3 hours

Question: What about the “hyperthermic rise compared to control” value (rhesus monkeys; rhesus monkeys, ambient temperature up to 31° C. (Banks et al. 2007)) of the same molecule?
Answer: ≤ 1 °C

Question: And the “time of peak plasma concentration after oral administration” value [1]?
Answer: about two

Question: And the “peak plasma concentration (average)” value ([1]; oral)?
Answer: 0.331 ng/mL

Question: Which “start of difference in core body temperature, time into anesthesia” value ([2]; 10% norepinephrine cream) does the source give for NC[C@H](O)c1ccc(O)c(O)c1 [Norepinephrine, Norepinephrine Bitartrate] here?
Answer: about 20 min

Question: And the “reversal of core and tail temperatures versus control” value ([2]; 10% norepinephrine cream, at about 90 min post anesthesia)?
Answer: the control group temperature goes above the test group temperature

Question: And the “start of pronounced vasoconstrictor action after first application of cream” value ([2]; 10% norepinephrine cream, from skin and core temperature)?
Answer: about 80 min

Question: And the “test group core body temperature higher than control group” value ([2]; 10% norepinephrine, 10% propylene glycol cream applied t=-60, -30, 0 min, remaining anesthesia period and 60 min post anesthesia)?
Answer: 1-1.5 °C

Question: What about the “effect on AVA” value (AVA) of the same molecule?
Answer: produced AVA vasoconstriction

Question: For Brc1c(NC2=NCCN2)ccc2nccnc12 [UK-14304, 5-bromo-N-(4,5-dihydro-1H-imidazol-2-yl)-6-quinoxalinamine], which “effect on AVA” value (AVA) is on record?
Answer: produced constriction of the AVA

Question: For c1ccc2c(c1)CC[C@H](CNCCCNC1=NCCCN1)O2 [alniditan], which “constriction of carotid arteriovenous anastomoses” value [3] is on record?
Answer: potently constrict

Question: What does the source list for CNC[C@H](O)c1ccc(O)c(O)c1 [epinephrine]?
Answer: time after which activity diminishes significantly ([4]; topical): 3 h; time to initial vasoconstrictor action after application ([4]; topical): ≤ 20 min; response time of vasoconstrictor action (Male Wistar rats; 6% Epinephrine cream of Example 1): 20 to 30 min; duration of effect of vasoconstrictor application on CBT after anesthesia (Male Wistar rats; group A: 6 wt.% epinephrine, 10 wt.% propylene glycol): at least 3 hours; tail temperature versus control group (Male Wistar rats; group A: 6 wt.% epinephrine, 10 wt.% propylene glycol, 20 minutes into the experiment): higher in the control group than in group A; difference in CBT between test and control group (Male Wistar rats; group A: 6 wt.% epinephrine, 10 wt.% propylene glycol, after 40 minutes through the remainder of the experiment (240 min)): one; difference in CBT between groups A and C (Male Wistar rats; group A: cream with 6 wt.% epinephrine, 10 wt.% propylene glycol, applied t=0 and 20 min, first 40 minutes, 23° C. ambient): no significant difference; time after which test group temperature rapidly falls off (Male Wistar rats; [5]): 2 h; time from anesthesia within which the CBT difference is established (Male Wistar rats; [5]): ≤ 20 min; difference in CBT versus control group C (Male Wistar rats; group B: 6 wt.% epinephrine, 20 wt.% propylene glycol, applied t=-30 min and t=0, maintained throughout anesthesia (t=60 m)): 2 °C; average decrease in CBT (pigs): 0.7 °C

Question: Which “effect on body temperature” value (adult male Wistar rat) does the source give for COc1ccc(OC)c(C(O)C(C)N)c1 (centres unmarked) [methoxamine] here?
Answer: resulted in hypothermia

Question: Which “time after application at which vasoconstricting effect begins” value ([4]; topical / dermal) does the source give for CNC[C@H](O)c1cccc(O)c1 [phenylephrine] here?
Answer: about 3 hours

Question: And the “effect on AVA” value (AVA)?
Answer: produced AVA constriction

Question: Which “constriction of carotid arteriovenous anastomoses” value [3] does the source give for CNS(=O)(=O)Cc1ccc2[nH]cc(CCN(C)C)c2c1 [sumatriptan] here?
Answer: potently constrict

— patent US20110144209A1, “USE OF VASOCONSTRICTORS” (priority 2008, published 2011)
